# Reference: patent US10568931B2, “Pharmaceutical composition comprising ginseng extracts for prevention and treatment of ophthalmological diseases” (GINTONIN KU BIOTECH Co., Ltd., priority 2017, dated 2020)
# What was measured:
# [1] = test system: human corneal epithelial-T (HCE-T) cells; experiment: Scratch wound healing / cell migration in HCE-T cells; type: cell-based; conditions: Ki16425 treated before gintonin
# Procedure: HCE-T cells (RCB-2280) were purchased from a Riken cell bank. The HCE-T cells were cultured in a medium in which 10% FCS was contained in a DMEM-Ham F12 (1:1) medium (Araki-sasaki et al., Investigative Ophthalmology and Visual Science 36, 614-621, 1995; Arakisasaki et al., J cellular Physiol. 182, 189-195, 2000).
# HCE-T (2.5×10^5/well) was planted in a 24-well plate and cultured for 24 hrs and then cultured for 6 hrs in a 0.2% FBS-containing DMEM medium again. The wound was made by drawing a line through the center of each well where cells grew by using a […] pipette tip and then the floating cells were washed twice with a 1% FBS-containing DMEM medium to be removed.
# The cells were treated with 0.03 to 1 μg/ml of gintonin and cultured and compared with cells without treating gintonin by observing and photographing (100×) cell shapes before and after gintonin treatment of each well with an inverted fluorescence microscope (AxioVert200; Carl Zeiss).
# For the analysis of the degree of cell growth in a part wounded with the pipette tip, an area of the wound part where cells were not recovered was measured using AxioVision.
# [2] = test system: intracytoplasmic calcium in HCE-T cells; experiment: Fura 2 fluorescence measurement of [Ca^2+]i in HCE-T cell suspension; type: cell-based, human; conditions: LPA1/3 receptor antagonist
# Procedure: Particularly, according to a method such as Jrgensen and the like, HCE-T cells (1 to 2×10^6 cell/ml) were mixed in […] Fura 2-AM while being shaken for 30 minutes at a 37° C. incubator by using a Ca^2+-containing buffer (pH 7.4) consisting of NaCl 120 mM, KCl 5 mM, MgCl2 1 mM, CaCl2 1.5 mM, glucose 10 mM, and HEPES 25 mM and a Ca^2+-free buffer (pH 7.4) consisting of NaCl 120 mM, KCl 5 mM, MgCl2 1 mM, EGTA 0.2 mM, glucose 10 mM, and HEPES 25 mM, and an excessive amount of fura-2 was removed by washing the cells with the Ca^2+ buffer or the Ca^2+-free buffer three times.
# [Ca^2+]i was estimated in the Fura 2-loaded cells by using a RF-5300PC intracellular ion measurement system (Shimadzu Corporation, Japan). […] Excitation wavelengths were alternated between 340 and […] under a computer control and emission was detected at 510. […]
# A measured ratio value of 340:380 was converted to a value of [Ca^2+]i by using Equation of Hounsell and the like (Hounsell, E. F., Davies, M. J., and Smith, K. D. (1997) Protein protocol handbook, Humanna press, Totawa, 803-804). […] Further, Sf380 and Sb380 are fluorescence intensity at 380 nm when adding digitonin and EGTA and the ratios are maximum and minimum values when these values are indicated (Grynkiewicz, G., M. Poenie, and R. Y. Tsien. (1985) J Biol Chem 260: 3440-3450).
compound,measurement,setting,value
Cc1noc(-c2ccc(CSCCC(=O)O)cc2)c1NC(=O)OC(C)c1ccccc1Cl (centres unmarked) [Ki16425],Effect of antagonist pretreatment on gintonin-promoted cell migration,[1],the action of the gintonin is inhibited
same,Effect of antagonist on increase in intracytoplasmic calcium by gintonin,[2],blocked
